The subject of this test is Aβ1-42 production. Put plainly: Cellular assay for inhibition of Aβ1-42 production (H4 APP751 SWE clone 8.20). It counts as cell-based. The settings on record: H4 APP751 SWE clone 8.20 cells, 19 h incubation. The method, boiled down:
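Compound-treated cells were incubated 19 h at 37 °C in 5% CO2. Aβ42 in the cell plate was detected overnight at 4 °C with an Aβ42 neoepitope antibody (565, Wallac-labelled, 0.8 ng/well) plus N-terminal antibody 26D6 (APC, 75 ng/well) in 40 mM Tris-HCl pH 7.4, 0.2% BSA. IC50s came from curve fitting.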

[1] abbreviates: 19 h, class symbols, read-out: Activity Rating (Aβ42 cellular IC50).
Where [2] appears, read: class symbols, read-out: Activity Rating (Aβ42 cellular IC50).

The values below come from US8637525B2, “Compounds for the reduction of beta-amyloid production” (Bristol-Myers Squibb Company, priority 2009, dated 2014).

Molecules are shown by their SMILES. Read-outs that look alike come from different tables or passages of the source.

As to `CCN(C)c1nc(Nc2ccc(-n3cnc(Cl)c3)c(OC)c2)nc2c1COCC2c1ccc(F)cc1` (stereo not drawn) [Example 62B, N2-(4-(4-chloro-1H-imidazol-1-yl)-3-methoxyphenyl)-N4-ethyl-8-(4-fluorophenyl)-N4-methyl-7,8-dihydro-5H-pyrano[4,3-d]pyrimidine-2,4-diamine], the IC50 (19 h, read-out: Activity Rating (Aβ42 cellular IC50), numeric value) amounted to 86 nM.

Take `CCNc1nc(Nc2ccc(-n3cnc(C)n3)c(F)c2)nc2c1CN(C)CC2c1ccccc1` (stereo not drawn) [Example 152, N4-ethyl-N2-(3-fluoro-4-(3-methyl-1H-1,2,4-triazol-1-yl)phenyl)-6-methyl-8-phenyl-5,6,7,8-tetrahydropyrido[4,3-d]pyrimidine-2,4-diamine]: the IC50 under setting [1] was 10 to 100 nM.

Regarding `CCN(C)c1nc(Nc2ccc(-n3cnc(Cl)c3)c(OC)c2)nc2c1COCC2c1ccccc1` (racemic) [Example 52, N^2-(4-(4-Chloro-1H-imidazol-1-yl)-3-methoxyphenyl)-N^4-ethyl-N^4-methyl-8-phenyl-7,8-dihydro-5H-pyrano[4,3-d]pyrimidine-2,4-diamine], the IC50 under setting [1] lay in the range of 10 to 100 nM.

For the compound `CNc1nc(Nc2ccc(-n3ncnc3C)c(F)c2)nc2c1CCC2c1ccccc1` (stereo not drawn) [Example 3, N2-(3-fluoro-4-(5-methyl-1H-1,2,4-triazol-1-yl)phenyl)-N4-methyl-7-phenyl-6,7-dihydro-5H-cyclopenta[d]pyrimidine-2,4-diamine], under setting [1], the IC50 is 10 to 100 nM.

`CNc1nc(Nc2ccc(-n3cnc(Cl)c3)c(OC)c2)nc2c1COCC2c1ccc(C(F)(F)F)cc1` (stereo not drawn) [Example 120A, N2-(4-(4-chloro-1H-imidazol-1-yl)-3-methoxyphenyl)-N4-methyl-8-(4-(trifluoromethyl)phenyl)-7,8-dihydro-5H-pyrano[4,3-d]pyrimidine-2,4-diamine]: the IC50 under setting [2] is 1.5 to 9.9 nM.

Regarding `COc1cc(Nc2nc3c(c(N4CC=C(F)CC4)n2)CCC3c2ccc(F)cc2)ccc1-n1cnc(Cl)c1` (stereo not drawn) [Example 40A, N-(4-(4-chloro-1H-imidazol-1-yl)-3-methoxyphenyl)-4-(4-fluoro-5,6-dihydropyridin-1(2H)-yl)-7-(4-fluorophenyl)-6,7-dihydro-5H-cyclopenta[d]pyrimidin-2-amine], the IC50 under setting [2] fell in the range of 1.5 to 9.9 nM.

Turning to `CNc1nc(Nc2ccc(C#N)c3ccccc23)nc2c1CCC2c1ccccc1` (stereo not drawn) [Example 229, 4-(4-(methylamino)-7-phenyl-6,7-dihydro-5H-cyclopenta[d]pyrimidin-2-ylamino)-1-naphthonitrile], the IC50 under setting [1] was greater than 1000 nM.

With `CNc1nc(Nc2ccc(-n3cnc(Cl)c3)c(OC)c2)nc2c1COCC2c1ccc(Br)cc1` (stereo not drawn) [Example 72, 8-(4-bromophenyl)-N^2-(4-(4-chloro-1H-imidazol-1-yl)-3-methoxyphenyl)-N^4-methyl-7,8-dihydro-5H-pyrano[4,3-d]pyrimidine-2,4-diamine], under setting [1], the IC50 fell in the range of 1.5 to 9.9 nM.

With `[2H]C([2H])([2H])Nc1nc(Nc2ccc(-n3cnc(Cl)c3)c(OC)c2)nc2c1CCC2c1ccc(F)cc1` (stereo not drawn) [Example 47, N^2-(4-(4-Chloro-1H-imidazol-1-yl)-3-methoxyphenyl)-7-(4-fluorophenyl)-N^4-trideuteromethyl-6,7-dihydro-5H-cyclopenta[d]pyrimidine-2,4-diamine], the IC50 under setting [1] lay in the range of 1.5 to 9.9 nM.

Consider `CNc1nc(Nc2ccc(-n3cnc(Cl)c3)c(OC)c2)nc2c1CCC2c1ccc(Cl)cc1` (single isomer, unassigned) [Example 94A, N^2-(4-(4-chloro-1H-imidazol-1-yl)-3-methoxyphenyl)-7-(4-chlorophenyl)-N^4-methyl-6,7-dihydro-5H-cyclopenta[d]pyrimidine-2,4-diamine], for which the IC50 under setting [2] was in the range of 1.5 to 9.9 nM.

For the compound `CNc1nc(Nc2ccc(-n3ncnc3C)c(F)c2)nc2c1COC2c1ccc(F)cc1` (stereo not drawn) [Example 82B, N2-(3-fluoro-4-(5-methyl-1H-1,2,4-triazol-1-yl)phenyl)-7-(4-fluorophenyl)-N4-methyl-5,7-dihydrofuro[3,4-d]pyrimidine-2,4-diamine], under setting [2], the half-inhibitory concentration (IC50) lay within 10 to 100 nM.

In the case of `CCNc1nc(Nc2ccc(-n3ncnc3C)c(F)c2)nc2c1COCC2c1ccc(C(F)(F)F)cc1` (stereo not drawn) [Example 119B, N4-ethyl-N2-(3-fluoro-4-(5-methyl-1H-1,2,4-triazol-1-yl)phenyl)-8-(4-(trifluoromethyl)phenyl)-7,8-dihydro-5H-pyrano[4,3-d]pyrimidine-2,4-diamine], the IC50 under setting [1] was 100 to 1000 nM.

With `CCNc1nc(Nc2ccc(-n3ncnc3C)c(F)c2)nc2c1CN(CC(F)F)CC2c1ccccc1` (stereo not drawn) [Example 194, 6-(2,2-difluoroethyl)-N4-ethyl-N2-(3-fluoro-4-(5-methyl-1H-1,2,4-triazol-1-yl)phenyl)-8-phenyl-5,6,7,8-tetrahydropyrido[4,3-d]pyrimidine-2,4-diamine], the IC50 under setting [1] was 10 to 100 nM.

Consider `COc1cc(Nc2nc3c(c(N4CCC(F)(F)C4)n2)CCC3c2cc(F)c(F)c(F)c2)ccc1-n1cnc(Cl)c1` (racemic) [Example 107, N-(4-(4-Chloro-1H-imidazol-1-yl)-3-methoxyphenyl)-4-(3,3-difluoropyrrolidin-1-yl)-7-(3,4,5-trifluorophenyl)-6,7-dihydro-5H-cyclopenta[d]pyrimidin-2-amine], for which the IC50 under setting [1] was in the range of 10 to 100 nM.

For the compound `CNc1nc(Nc2ccc3[nH]c(C)cc3c2)nc2c1CCC2c1ccccc1` (stereo not drawn) [Example 249, N4-methyl-N2-(2-methyl-1H-indol-5-yl)-7-phenyl-6,7-dihydro-5H-cyclopenta[d]pyrimidine-2,4-diamine], the IC50 under setting [1] was greater than 1000 nM.

As for `CNc1nc(Nc2ccc(-n3cnc(Cl)c3)c(OC)c2)nc2c1COCC2c1ccc(Cl)cc1` (stereo not drawn) [Example 64, N^2-(4-(4-chloro-1H-imidazol-1-yl)-3-methoxyphenyl)-8-(4-chlorophenyl)-N^4-methyl-7,8-dihydro-5H-pyrano[4,3-d]pyrimidine-2,4-diamine], under setting [1], the IC50 is 10 to 100 nM.

Take `CCN(C)c1nc(Nc2ccc(-n3cnc(Cl)c3)c(OC)c2)nc2c1CN(C)CC2c1ccc(F)cc1` (stereo not drawn) [Example 165, N2-(4-(4-chloro-1H-imidazol-1-yl)-3-methoxyphenyl)-N4-ethyl-8-(4-fluorophenyl)-N4,6-dimethyl-5,6,7,8-tetrahydropyrido[4,3-d]pyrimidine-2,4-diamine]: the IC50 under setting [1] fell in the range of 10 to 100 nM.

For `CNc1nc(Nc2ccc(-n3cnc(C)n3)c(OC)c2)nc2c1CC[C@@]2(C)c1ccc(F)cc1` (single isomer, unassigned) [Example 265A], the IC50 under setting [1] was in the range of 10 to 100 nM.

For `COc1cc(Nc2nc3c(c(N4CC[C@@H](F)C4)n2)CCC3c2ccc(F)cc2)ccc1-n1cnc(Cl)c1` (stereo partly drawn) [Example 38B, N-(4-(4-chloro-1H-imidazol-1-yl)-3-methoxyphenyl)-7-(4-fluorophenyl)-4-((R)-3-fluoropyrrolidin-1-yl)-6,7-dihydro-5H-cyclopenta[d]pyrimidin-2-amine], the IC50 under setting [2] was in the range of 10 to 100 nM.

For `COc1cc(Nc2nc(N(C)C)c3c(n2)C(O)(c2ccccc2)CC3)ccc1-n1cnc(Cl)c1` (stereo not drawn) [Example 179, 2-(4-(4-chloro-1H-imidazol-1-yl)-3-methoxyphenylamino)-4-(dimethylamino)-7-phenyl-6,7-dihydro-5H-cyclopenta[d]pyrimidin-7-ol], the IC50 under setting [1] was in the range of 10 to 100 nM.

Take `COc1cc(Nc2nc3c(c(N4CC=C(F)CC4)n2)CCC3c2ccc(F)cc2)ccc1-n1cnc(Cl)c1` (stereo not drawn) [Example 40B, N-(4-(4-chloro-1H-imidazol-1-yl)-3-methoxyphenyl)-4-(4-fluoro-5,6-dihydropyridin-1(2H)-yl)-7-(4-fluorophenyl)-6,7-dihydro-5H-cyclopenta[d]pyrimidin-2-amine]: the IC50 under setting [2] was 100 to 1000 nM.

With `CCNc1nc(Nc2ccc(-n3cnc(Cl)c3)c(OC)c2)nc2c1CCN(C(=O)OC)C2c1ccc(F)cc1` (stereo not drawn) [Example 170, methyl 2-(4-(4-chloro-1H-imidazol-1-yl)-3-methoxyphenylamino)-4-(ethylamino)-8-(4-fluorophenyl)-5,6-dihydropyrido[3,4-d]pyrimidine-7(8H)-carboxylate], the IC50 under setting [2] was 10 to 100 nM.

As for `CCNc1nc(Nc2ccc(-n3ncnc3C)c(F)c2)nc2c1COCC2c1ccc(F)cc1` (stereo not drawn) [Example 59A, N4-ethyl-N2-(3-fluoro-4-(5-methyl-1H-1,2,4-triazol-1-yl)phenyl)-8-(4-fluorophenyl)-7,8-dihydro-5H-pyrano[4,3-d]pyrimidine-2,4-diamine], under setting [1], the IC50 is 1.5 to 9.9 nM.

On to `CNc1nc(Nc2ccc(-n3cnc(Cl)c3)c(OC)c2)nc2c1CN(S(C)(=O)=O)CC2c1ccccc1` (racemic) [Example 129, N2-(4-(4-chloro-1H-imidazol-1-yl)-3-methoxyphenyl)-N4-methyl-6-(methylsulfonyl)-8-phenyl-5,6,7,8-tetrahydropyrido[4,3-d]pyrimidine-2,4-diamine], for which the 50% inhibitory concentration (IC50) under setting [1] was in the range of 10 to 100 nM.

As to `COc1cc(Nc2nc3c(c(N4CCC(C)(N)CC4)n2)CCC3c2ccc(F)cc2)ccc1-n1cnc(Cl)c1` (stereo not drawn) [Example 25, 4-(4-amino-4-methylpiperidin-1-yl)-N-(4-(4-chloro-1H-imidazol-1-yl)-3-methoxyphenyl)-7-(4-fluorophenyl)-6,7-dihydro-5H-cyclopenta[d]pyrimidin-2-amine], the IC50 under setting [1] is 10 to 100 nM.

As for `COc1cc(Nc2nc3c(c(N(C)C)n2)CCCC3c2ccc(F)cc2)ccc1-n1cnc(Cl)c1` (single isomer, unassigned) [Example 127A, N^2-(4-(4-chloro-1H-imidazol-1-yl)-3-methoxyphenyl)-8-(4-fluorophenyl)-N^4,N^4-dimethyl-5,6,7,8-tetrahydroquinazoline-2,4-diamine], the IC50 under setting [2] lay in the range of 1.5 to 9.9 nM.

Turning to `CCNc1nc(Nc2ccc(-n3cnc(Cl)c3)c(OC)c2)nc2c1CN(C(C)=O)CC2c1ccccc1` (stereo not drawn) [Example 137A, 1-(2-(4-(4-chloro-1H-imidazol-1-yl)-3-methoxyphenylamino)-4-(ethylamino)-8-phenyl-7,8-dihydropyrido[4,3-d]pyrimidin-6(5H)-yl)ethanone], under setting [1], the half-maximal inhibitory concentration (IC50) fell in the range of 1.5 to 9.9 nM.

Usually IC50 stands for the midpoint of a concentration-inhibition curve.
